Data: patent US20030220363A1, “Use of propionyl L-carnitine for the preparation of a medicament capable of inducing apoptosis” (SIGMA-TAU INDUSTRIE FARMACEUTICHE RIUNITE S.p.A., priority 1998, published 2003)
Marks after values point to notes of the source that are not given here.

Columns and labels:
[1] = test system: smooth muscle cells of rat aorta; test: In vivo proliferation of smooth muscle cells of rat aorta after mechanical de-endothelialization (anti-BrDU positive nuclei); parameters: species or system Wistar rat; conditions: for +Nuclei/total nuclei % (anti-bromodeoxyuridine positive): 15 days after de-endothelialization, PLC 120 mg/Kg or Enalapril 1 mg/Kg p.c. die, ± s.e.m., preliminary results
Description: (§1) Wistar male rats, weighing between […], were used for the experiments. The rats were anaesthetised with Nembutal i.p. (35 mg/kg body weight) and the thoracic portion of aorta was submitted to endothelium mechanical removal with Fogarty 2F balloon probe (Baxter USA), according to the Baugartner and Studer method(1966) with minor modification (Orlandi 1994).
(§2) Two groups were subjected to pharmacological treatment with propionyl L-carnitine (PLC, 120 mg/Kg p.c. die), one group was treated with an ACE-inhibitor (Enalapril, 1 mg/Kg p.c. die); the two remaining groups were the control. Moreover, some non-balloonized animals were used as blanks.
The animals were sacrificed 3 and 15 days after de-endothelialization. Two hours before sacrifice, all the rats received i.v. a Bromodeoxyuridine solution (BrDU) (45 mg/kg body weight) in order to verify cell proliferation. One hour before sacrifice, some randomly selected animals received 1 ml Blue Evans (1% in 0.9% NaCl solution) in order to evaluate the degree of aorta disruption.
At sacrifice, the animals were anaesthetised with i.p. Nembutal and perfused, after washing with isotonic saline containing 3% Dextran 70, with buffered formalin for 20 minutes. Aortae were isolated, slightly washed in saline and dissected longitudinally. Carotid, heart and small intestine were also excised. All the organs were post-fixed in the same fixative for 24 hours at room temperature.
In order to put in evidence proliferating cells in damaged arteries, serial sections in paraffin of aortae were deparaffined, rehydrated, immersed in a 3% H2O2 solution for 20 minutes and incubated with trypsine (0.05 M in Tris-HCl, pH 7.6) at 37° C. After that, sections were treated with 2N HCl at 37° C. for 30 minutes, washed with 0.1 M sodium tetraborate for 10 minutes, incubated with normal horse serum (Vector) and subsequently with and-BrDU monoclonal antibody (Ylem) for 1 hour. The preparates were then reacted with biotilinated anti-mouse IgG (Vector) and the Streptoavidine-ABC-POD complex (Ylem).
The reaction was evidenced by using diaminobenzidine (DAB) as final chromogen. The count of positive nuclei for BrDU was made on the total number of nuclei. Such count was blind-made by two researchers separately. The difference between the two counts was always lower than 0.5%.
All data were analysed with the T Student's test. The differences between the groups were considered to be significant for P<0.05.

rat aorta intima = test: Morphometric analysis of intima thickening after mechanical de-endothelialization; assay type: in vivo, Wistar rat; conditions: 15 days after de-endothelialization, PLC 120 mg/Kg or Enalapril 1 mg/Kg p.c. die; for Intima volume/wall (percentage ratio between intima volume and aorta wall volume): ± s.e.m., preliminary results
Description: as §1, §2
The entity of intima thickening after 15 days was evaluated on Verhoeff-Van Gieson stained sections, using a grid overlapped on the image, consisting of 400 points, 1 cm from each other.
The analysis was made on hystological preparates through a Hamamatsu C3077 camera controlled by a Hamamatsu DVS 3000 image analyser and connected to a Polyvar-Reichert microscope. Morphometric evaluation was made at X116 magnification. The following parameters were evaluated a) relative volume of intima referred to arterial wall; b) relative volume of tunica media referred to arterial wall, by counting the overlapping points on the intima and mean tunica.
3-12 aorta sections were used at different level for each animal. This number was a function of the structure sizes, according to Sach's formula, showing the number of fields necessary to obtain a statistically significant sample.

[2] = test system: SMC isolated from normotensive rats (WKY); test: Cell growth (cell number/ml) of cultured aortic SMC from WKY; assay type: cell-based, rat
Description: (§3) In vitro experiments were carried out to evaluate the effect of propionyl L-carnitine (PLC) on smooth muscular cells (SMC) isolated from aortae of spontaneously hypertensive rats (SHR) and, as control, on SMC isolated from normotensive rats (WKY).
(§4) These in vitro studies evidenced that PLC, when administered during culture exponential growth phase, reduces cell growth, evaluated as cell number/ml, as well as DNA synthesis, evaluated through incorporation of trititated thymidine (Tab. 4 and 5).

[3] = test system: K562, chronic myeloid leukemia cells; test: Inhibition of proliferation of neoplastic cells (Trypan Blue count), K562; assay type: cell-based, human
Description: (§5) Human derived neoplastic cell, obtained from Istituto Zooprofilattico of Brescia, were cultivated. The cells used for the experiment were: U266, multiple myleopma, HeLa, uterine cervix tumor, K562, chronic myeloid leukemia cells. HeLa and K562 were cultivated in RPMI+10% FCS, while those of U266 line were cultivated in RPMI+15% FCS, both media containing Penicilline/Streptomycine (50 U/mL and 50 μg/mL). Cells were plated in 6-wells plates (Falcon). Analysis were performed in cells having 50% confluence.
(§6) Each cell line was treated with PCL according to the folowing schemes:
(§7) a) 1 mM PLC for 24 hours (FIGS. 1-3); 1 mM PLC for 48 hours (FIGS. 1-3);
[…] 4-6).
(§8) At the end of each treatment, cells were counted in Burker chamber in the presence of Trypan Blue 0.5%, diluted 1:2. Count was made for each experimental group on samples coming from three wells.

[4] = test system: smooth muscular cells (SMC) isolated from aortae of spontaneously hypertensive rats (SHR); test: Cell growth (cell number/ml) of cultured aortic SMC from SHR; assay type: cell-based, rat
Description: as §3, §4

U266, multiple myleopma = test: Inhibition of proliferation of neoplastic cells (Trypan Blue count), U266; assay type: cell-based, human
Description: as §5, §6, §7
[…] 4-6).
as §8

[5] = test system: smooth muscular cells (SMC) isolated from aortae of spontaneously hypertensive rats (SHR); test: DNA synthesis by tritiated thymidine incorporation, SHR SMC; assay type: cell-based, rat; conditions: culture day 6
Description: as §3, §4

[6] = test system: smooth muscular cells (SMC) isolated from aortae of spontaneously hypertensive rats (SHR); test: Apoptotic cell count after Hoechst 33258 staining, SHR SMC; assay type: cell-based, rat
Description: as §3
(§9) As a further characterisation of smooth muscular cells in the presence of PLC, the percentage of apoptotic cells was measured both in basal conditions and in oxidative stress conditions. Apoptosis evaluation was carried out by counting the number of apoptotic cells present on a total of 1000 cells, after specific DNA staining with Hoechst 33258.

[7] = test system: SMC isolated from normotensive rats (WKY); test: DNA synthesis by tritiated thymidine incorporation, WKY SMC; assay type: cell-based, rat; conditions: culture day 6
Description: as §3, §4

[8] = test system: SMC isolated from normotensive rats (WKY); test: Apoptotic cell count after Hoechst 33258 staining, WKY SMC; assay type: cell-based, rat
Description: as §3, §9
In WKY cultures, apoptosis percentage is negligible (tab. 6)

[9] = test system: HeLa, uterine cervix tumor; test: Inhibition of proliferation of neoplastic cells (Trypan Blue count), HeLa; assay type: cell-based, human; parameters: inhibition of proliferation after removal of PLC: dose or concentration left out as unconfirmed
Description: as §5, §6, §7
[…] 4-6).
as §8

## CCOC(=O)[C@H](CCc1ccccc1)N[C@@H](C)C(=O)N1CCC[C@H]1C(=O)O [Enalapril]
[1]; intima tunica
  +Nuclei/total nuclei % (anti-bromodeoxyuridine positive): No significant differences
[1]; intima tunica, listed as enalapril
  +Nuclei/total nuclei % (anti-bromodeoxyuridine positive): 2.43 ± 0.39 (c) %
[1]; tunica media
  +Nuclei/total nuclei % (anti-bromodeoxyuridine positive): No significant differences
[1]; tunica media, listed as enalapril
  +Nuclei/total nuclei % (anti-bromodeoxyuridine positive): 0.27 ± 0.09%
Rat aorta intima
  Reduction (% to CTR) of intima relative volume: 26.14%
  Intima volume/wall (percentage ratio between intima volume and aorta wall volume): 21.96 ± 1.20 ^(e) %

## CCC(=O)O[C@H](CC(=O)[O-])C[N+](C)(C)C [PLC, propionyl L-carnitine]
[2]; culture day 2
  cell number/ml: 3*10^4 ± 2 /ml
[2]; culture day 3
  cell number/ml: 4*10^4 ± 2 /ml
[2]; culture day 4
  cell number/ml: 6*10^4 ± 2 /ml
[2]; culture day 6
  cell number/ml: 8*10^4 ± 3 /ml
[1]; tunica media, 3 days after de-endothelialization, PLC 120 mg/Kg p.c. die
  Reduction % of BrDU-positive nuclei against control: 59.3%
[1]; tunica media, 3 days after de-endothelialization, PLC 120 mg/Kg p.c. die, ± s.e.m
  positive nuclei/total nuclei % (anti-bromodeoxyuridine positive): 2.59 ± 0.56%
[3]; K562, 1 mM PLC for 24 hours
  inhibition of proliferation with respect to the control: 37%
[3]; K562, 1 mM PLC for 48 hours
  inhibition of proliferation with respect to the control: 39%
[3]; K562, 24 hours with 1 mM PLC, then fresh medium without the substance
  inhibition of proliferation after removal of PLC: 21%
[4]; culture day 2
  cell number/ml: 7*10^4 ± 4 /ml
[4]; culture day 3
  cell number/ml: 4*10^4 ± 2 /ml
[4]; culture day 4
  cell number/ml: 7*10^4 ± 4 /ml
[4]; culture day 6
  cell number/ml: 20*10^4 ± 5 /ml
U266, multiple myleopma; U266, 1 mM PLC for 24 hours
  inhibition of proliferation with respect to the control: 46%
U266, multiple myleopma; U266, 1 mM PLC for 48 hours
  inhibition of proliferation with respect to the control: 26%
U266, multiple myleopma; U266, 24 hours with 1 mM PLC, then fresh medium without the substance
  inhibition of proliferation after removal of PLC: 26%
[5]
  tritiated thymidine incorporation: 1.81E−05 μCi/μgDNA
Rat aorta intima
  Reduction (% to CTR) of intima relative volume: 31.11%
  Intima volume/wall (percentage ratio between intima volume and aorta wall volume): 20.48 ± 2.73 ^(d) %
[6]; basal conditions
  apoptotic cell percentage: 2%
[6]; oxidative stress
  apoptotic cell percentage: 10%
[7]
  tritiated thymidine incorporation: 2.56E−05 μCi/μgDNA
[8]; basal conditions
  apoptotic cell percentage: 0%
[8]; oxidative stress
  apoptotic cell percentage: 2%
[9]; 1 mM PLC for 24 hours
  inhibition of proliferation with respect to the control: 25%
[9]; 1 mM PLC for 48 hours
  inhibition of proliferation with respect to the control: 17%
[9]; 24 hours PLC, then fresh medium without the substance
  inhibition of proliferation after removal of PLC: 20%
